Measured values published in ChEMBL document CHEMBL1687748 (Antimicrob Agents Chemother, 2009).

Legend:
Assay type in all cases: functional
[1] = tested on: Bacillus anthracis; experiment: Total spore counts of toxin and capsule gene-deficient Bacillus anthracis Sterne in hollow-fiber pharmacodynamic infection model at 50 mg, qd by Bayesian method
[2] = tested on: Bacillus anthracis; experiment: Hill constant for compound-sensitive toxin and capsule gene-deficient Bacillus anthracis Sterne in hollow-fiber pharmacodynamic infection model at 250 mg, qd by Bayesian method
[3] = tested on: Bacillus anthracis; experiment: Growth rate constant of vegetative-phase cells going to spore phase in toxin and capsule gene-deficient Bacillus anthracis Sterne in hollow-fiber pharmacodynamic infection model at 150 mg administered as continuous infusion by Bayesian method
[4] = tested on: Bacillus anthracis; experiment: Growth rate constant of vegetative-phase cells going to spore phase in toxin and capsule gene-deficient Bacillus anthracis Sterne in hollow-fiber pharmacodynamic infection model at 200 mg, qd by Bayesian method
[5] = tested on: Bacillus anthracis; experiment: Total spore counts of toxin and capsule gene-deficient Bacillus anthracis Sterne in hollow-fiber pharmacodynamic infection model at 200 mg, qd by Bayesian method
[6] = tested on: Bacillus anthracis; experiment: Growth rate constant of spore-phase cells going to vegetative phase in toxin and capsule gene-deficient Bacillus anthracis Sterne in hollow-fiber pharmacodynamic infection model at 150 mg administered as continuous infusion by Bayesian method
[7] = tested on: Bacillus anthracis; experiment: Kill rate constant for compound-sensitive toxin and capsule gene-deficient Bacillus anthracis Sterne in hollow-fiber pharmacodynamic infection model at 250 mg, qd by Bayesian method
[8] = tested on: Bacillus anthracis; experiment: Kill rate constant for compound-sensitive toxin and capsule gene-deficient Bacillus anthracis Sterne in hollow-fiber pharmacodynamic infection model at 50 mg, qd by Bayesian method
[9] = tested on: Bacillus anthracis; experiment: Growth rate constant of spore-phase cells going to vegetative phase in toxin and capsule gene-deficient Bacillus anthracis Sterne in hollow-fiber pharmacodynamic infection model at 250 mg administered as continuous infusion by Bayesian method
[10] = tested on: Bacillus anthracis; experiment: Total spore counts of toxin and capsule gene-deficient Bacillus anthracis Sterne in hollow-fiber pharmacodynamic infection model administered as continuous infusion
[11] = tested on: Bacillus anthracis; experiment: Growth rate constant of spore-phase cells going to vegetative phase in toxin and capsule gene-deficient Bacillus anthracis Sterne in hollow-fiber pharmacodynamic infection model at 100 mg, qd by Bayesian method
[12] = tested on: Bacillus anthracis; experiment: Hill constant for compound-sensitive toxin and capsule gene-deficient Bacillus anthracis Sterne in hollow-fiber pharmacodynamic infection model at 100 mg, qd by Bayesian method
[13] = tested on: Bacillus anthracis; experiment: Growth rate constant for compound-sensitive toxin and capsule gene-deficient Bacillus anthracis Sterne in hollow-fiber pharmacodynamic infection model at 150 mg, qd by Bayesian method
[14] = tested on: Bacillus anthracis; experiment: Growth rate constant for compound-sensitive toxin and capsule gene-deficient Bacillus anthracis Sterne in hollow-fiber pharmacodynamic infection model at 100 mg, qd by Bayesian method
[15] = tested on: Bacillus anthracis; experiment: Total sensitive organism counts of toxin and capsule gene-deficient Bacillus anthracis Sterne in hollow-fiber pharmacodynamic infection model at 100 mg, qd by Bayesian method
[16] = tested on: Bacillus anthracis; experiment: Total spore counts of toxin and capsule gene-deficient Bacillus anthracis Sterne in hollow-fiber pharmacodynamic infection model at 150 mg, qd by Bayesian method
[17] = tested on: Bacillus anthracis; experiment: Total sensitive organism counts of toxin and capsule gene-deficient Bacillus anthracis Sterne in hollow-fiber pharmacodynamic infection model at 150 mg, qd by Bayesian method
[18] = tested on: Bacillus anthracis; experiment: Total spore counts of toxin and capsule gene-deficient Bacillus anthracis Sterne in hollow-fiber pharmacodynamic infection model at 250 mg administered as continuous infusion by Bayesian method
[19] = tested on: Bacillus anthracis; experiment: Total spore counts of toxin and capsule gene-deficient Bacillus anthracis Sterne in hollow-fiber pharmacodynamic infection model at 250 mg, qd by Bayesian method
[20] = tested on: Bacillus anthracis; experiment: Total sensitive organism counts of toxin and capsule gene-deficient Bacillus anthracis Sterne in hollow-fiber pharmacodynamic infection model at 100 mg administered as continuous infusion by Bayesian method
[21] = tested on: Bacillus anthracis; experiment: Total sensitive organism counts of toxin and capsule gene-deficient Bacillus anthracis Sterne in hollow-fiber pharmacodynamic infection model at 250 mg administered as continuous infusion by Bayesian method
[22] = tested on: Bacillus anthracis; experiment: Growth rate constant of vegetative-phase cells going to spore phase in toxin and capsule gene-deficient Bacillus anthracis Sterne in hollow-fiber pharmacodynamic infection model at 100 mg, qd by Bayesian method
[23] = tested on: Bacillus anthracis; experiment: Growth rate constant of spore-phase cells going to vegetative phase in toxin and capsule gene-deficient Bacillus anthracis Sterne in hollow-fiber pharmacodynamic infection model at 50 mg, qd by Bayesian method
[24] = tested on: Bacillus anthracis; experiment: Growth rate constant for compound-sensitive toxin and capsule gene-deficient Bacillus anthracis Sterne in hollow-fiber pharmacodynamic infection model administered for every 24 hrs
[25] = tested on: Bacillus anthracis; experiment: Kill rate constant for compound-sensitive toxin and capsule gene-deficient Bacillus anthracis Sterne in hollow-fiber pharmacodynamic infection model administered for every 24 hrs
[26] = tested on: Bacillus anthracis; experiment: Growth rate constant of vegetative-phase cells going to spore phase in toxin and capsule gene-deficient Bacillus anthracis Sterne in hollow-fiber pharmacodynamic infection model at 150 mg, qd by Bayesian method
[27] = tested on: Bacillus anthracis; experiment: Growth rate constant for compound-sensitive toxin and capsule gene-deficient Bacillus anthracis Sterne in hollow-fiber pharmacodynamic infection model at 200 mg administered as continuous infusion by Bayesian method
[28] = tested on: Bacillus anthracis; experiment: Total sensitive organism counts of toxin and capsule gene-deficient Bacillus anthracis Sterne in hollow-fiber pharmacodynamic infection model at 50 mg, qd by Bayesian method
[29] = tested on: Bacillus anthracis; experiment: Kill rate constant for compound-sensitive toxin and capsule gene-deficient Bacillus anthracis Sterne in hollow-fiber pharmacodynamic infection model at 250 mg administered as continuous infusion by Bayesian method
[30] = tested on: Bacillus anthracis; experiment: Kill rate constant for compound-sensitive toxin and capsule gene-deficient Bacillus anthracis Sterne in hollow-fiber pharmacodynamic infection model at 150 mg, qd by Bayesian method
[31] = tested on: Bacillus anthracis; experiment: Hill constant for compound-sensitive toxin and capsule gene-deficient Bacillus anthracis Sterne in hollow-fiber pharmacodynamic infection model at 200 mg administered as continuous infusion by Bayesian method
[32] = tested on: Bacillus anthracis; experiment: Total spore counts of toxin and capsule gene-deficient Bacillus anthracis Sterne in hollow-fiber pharmacodynamic infection model at 100 mg administered as continuous infusion by Bayesian method
[33] = tested on: Bacillus anthracis; experiment: Hill constant for compound-sensitive toxin and capsule gene-deficient Bacillus anthracis Sterne in hollow-fiber pharmacodynamic infection model at 150 mg administered as continuous infusion by Bayesian method
[34] = tested on: Bacillus anthracis; experiment: Growth rate constant for compound-sensitive toxin and capsule gene-deficient Bacillus anthracis Sterne in hollow-fiber pharmacodynamic infection model at 200 mg, qd by Bayesian method
[35] = tested on: Bacillus anthracis; experiment: Total sensitive organism counts of toxin and capsule gene-deficient Bacillus anthracis Sterne in hollow-fiber pharmacodynamic infection model at 200 mg, qd by Bayesian method
[36] = tested on: Bacillus anthracis; experiment: Growth rate constant for compound-sensitive toxin and capsule gene-deficient Bacillus anthracis Sterne in hollow-fiber pharmacodynamic infection model at 100 mg administered as continuous infusion by Bayesian method
[37] = tested on: Bacillus anthracis; experiment: Kill rate constant for compound-sensitive toxin and capsule gene-deficient Bacillus anthracis Sterne in hollow-fiber pharmacodynamic infection model at 200 mg, qd by Bayesian method

COc1c(N2C[C@@H]3CCCN[C@@H]3C2)c(F)cc2c(=O)c(C(=O)O)cn(C3CC3)c12 [MOXIFLOXACIN]
CFU/ml [1]: 1860000
Activity [2]: 1 h⁻¹
Activity [3]: 4.94 h⁻¹
Activity [4]: 2.09 h⁻¹
CFU/ml [5]: 2420000
Activity [6]: 9.06 h⁻¹
Activity [7]: 4.48 h⁻¹
Activity [8]: 6.24 h⁻¹
Activity [9]: 7.23 h⁻¹
CFU/ml [10]: 1880000
Activity [11]: 25.9 h⁻¹
Activity [12]: 30 h⁻¹
Activity [13]: 7.42 h⁻¹
Activity [14]: 6.57 h⁻¹
CFU/ml [15]: 28000000
CFU/ml [16]: 1890000
CFU/ml [17]: 21500000
CFU/ml [18]: 1860000
CFU/ml [19]: 2360000
CFU/ml [20]: 20600000
CFU/ml [21]: 21600000
Activity [22]: 1.38 h⁻¹
Activity [23]: 2.91 h⁻¹
Activity [24]: 8.24 h⁻¹
Activity [25]: 8.24 h⁻¹
Activity [26]: 0.0657 h⁻¹
Activity [27]: 8.25 h⁻¹
CFU/ml [28]: 19600000
Activity [29]: 8.28 h⁻¹
Activity [30]: 6.58 h⁻¹
Activity [31]: 30 h⁻¹
CFU/ml [32]: 1860000
Activity [33]: 30 h⁻¹
Activity [34]: 1.81 h⁻¹
CFU/ml [35]: 53600000
Activity [36]: 8.26 h⁻¹
Activity [37]: 4.29 h⁻¹
